The results in this text go back to ChEMBL document CHEMBL1129103, “Synthesis and antiviral activity of 2-deoxy-1,5-anhydro-D-mannitol nucleosides containing a pyrimidine base moiety” (1996).

The structures appear in SMILES notation. ≈ marks a conversion by molar mass, not a printed value. A value given as a limit tells only on which side of the number the result lay.

Common to all, as to assay type: functional
One test deals with Cytomegalovirus. The test can be described thus: Compound was tested for antiherpes activity against Cytomegalovirus virus(AD 169) in HEL cells. The following applies: Human betaherpesvirus 5.
In another test the test system is Human alphaherpesvirus 1. The test is described as follows: Compound was tested for antiherpes activity against Herpes simplex virus-1(KOS) in E6SM cell cultures.
Another test deals with Human alphaherpesvirus 2. The test can be described thus: Compound was tested for antiherpes activity against Herpes simplex virus-2(G) in E6SM cell cultures.
The test system of the next test is Human alphaherpesvirus 3. The test can be described thus: Compound was tested for antiherpes activity against Varicella zoster virus(OKA) in HEL cells.

As to `O=c1[nH]c(=O)n(C2COC(CO)C(O)C2O)cc1I` (stereo not drawn), the MIC is over 50 mg/L against Cytomegalovirus, 7 mg/L (≈ 18.2 µM) with Human alphaherpesvirus 1, 70 mg/L (≈ 182 µM) against Human alphaherpesvirus 2 and over 50 mg/L in the test on Human alphaherpesvirus 3.

For `Nc1ccn(C2COC(CO)C(O)C2O)c(=O)n1` (stereo not drawn), the MIC against Cytomegalovirus came out at 10 mg/L (≈ 38.9 µM); against Human alphaherpesvirus 1, 70 mg/L (≈ 272 µM); against Human alphaherpesvirus 2, 70 mg/L (≈ 272 µM); against Human alphaherpesvirus 3, 10 mg/L (≈ 38.9 µM).

As to `O=c1ccn(C2COC(CO)C(O)C2O)c(=O)[nH]1` (stereo not drawn), the MIC in the test on Cytomegalovirus is over 50 mg/L; in the test with Human alphaherpesvirus 1 it was 150 mg/L (≈ 581 µM); with Human alphaherpesvirus 2, over 200 mg/L; against Human alphaherpesvirus 3, over 50 mg/L.

For `Nc1nc2c(ncn2COCCO)c(=O)[nH]1` [ACYCLOVIR], the MIC is 0.004 mg/L (≈ 0.0178 µM) against Human alphaherpesvirus 1, 0.004 mg/L (≈ 0.0178 µM) with Human alphaherpesvirus 2 and 0.5 mg/L (≈ 2.22 µM) against Human alphaherpesvirus 3.

For the compound `Nc1nc2c(ncn2COC(CO)CO)c(=O)[nH]1` [GANCICLOVIR], the values for the MIC against Cytomegalovirus, with Human alphaherpesvirus 1 and in the test with Human alphaherpesvirus 2 were 1 mg/L (≈ 3.92 µM), 0.0007 mg/L (≈ 0.00274 µM) and 0.002 mg/L (≈ 0.00784 µM), respectively.
